Legend:
XIAP-BIR3 = biological target: T1, XIAP-BIR3 (Homo sapiens, UniProt P98170); experiment: MST binding of B3 to fluorescently labelled recombinant XIAP; details: spread printed +/−11 μM, read-out: Kd, direct binding to XIAP-BIR3
T1 construct: fused on or other part: NT650 fluorescent dye attached covalently by maleimide coupling; the protein is otherwise untagged
Procedure: (§1) Microscale thermophoresis (MST) binding assays were performed by CreLux, a WuXi AppTech company in Germany, using recombinant ARTS, XIAP, Bcl-2 and cIAP1 proteins. Specifically, for performing experiments with untagged XIAP, a fluorescent label (NT650) was covalently attached to the protein (Maleimide coupling). The labelling was performed in a buffer containing 50 mM HEPES pH 7.0, 150 mM NaCl and 0.005% Tween-20.
as §1, with “ARTS” for “ARTS, XIAP, Bcl-2”, “XIAP” for “cIAP1”, “labeling” for “labelling”, “NaCl,” for “NaCl”, “Tween-20. A detailed description is provided in the Supplementary Materials and methods.” for “Tween-20.”

[1] = tested on: CCRF-CEM (acute lymphoblastic leukemia) cell line; experiment: Western blot analysis of CCRF-CEM; format: cell-based; details: B3 alone, 24 hrs
Procedure: (§2) The cells were lysed in WCE (whole-cell extract) buffer [25 mM Hepes, pH 7.7, 0.3M NaCl, 1.5 mM MgCl2, 0.2 mM EDTA, 0.1% Triton X-100, 100[μg/ml PMSF and protease inhibitor cocktail (Roche, 1:100 dilution)]. 100 μg of total cell protein, measured with the Bio-Rad Protein Assay kit, were separated by SDS-PAGE (12%) followed by transfer for 2 h on to a nitrocellulose membrane. The membrane was blocked with 5% (w/v) non-fat dried skimmed milk powder in PBS supplemented with 0.05% Tween20 (PBS-T) for 1 hour at room temperature (R.T). Membrane was then probed with primary antibody at 4° C. overnight. Next, the membrane was incubated with the appropriate HRP-conjugated secondary antibody, for 1 hour at R.T. and washed 15 min ×3 with PBS-T. WesternBright ECL (Advansta) was added to the membrane for 2 min and analyzed using ImageQuant LAS-4000 analyzer (GE Healthcare Life Sciences) & “ImageQuant LAS-4000” software (GE Healthcare Life Sciences). Densitometry analysis was performed using ImageQuant total lab 7 (GE Healthcare Life Sciences), image analysis software.

[2] = biological target: T2, binding between ARTS and p53 (Mus musculus, UniProt P02340); experiment: Co-immuno-precipitation between ARTS and p53 in Sept4/ARTS KO MEFs; format: cell-based; details: B3 for 24 hrs
T2 construct: expressed in transfected cells; host or cells: Sept4/ARTS KO MEFs (per the earlier reading)
T2 sequence (P02340 whole entry): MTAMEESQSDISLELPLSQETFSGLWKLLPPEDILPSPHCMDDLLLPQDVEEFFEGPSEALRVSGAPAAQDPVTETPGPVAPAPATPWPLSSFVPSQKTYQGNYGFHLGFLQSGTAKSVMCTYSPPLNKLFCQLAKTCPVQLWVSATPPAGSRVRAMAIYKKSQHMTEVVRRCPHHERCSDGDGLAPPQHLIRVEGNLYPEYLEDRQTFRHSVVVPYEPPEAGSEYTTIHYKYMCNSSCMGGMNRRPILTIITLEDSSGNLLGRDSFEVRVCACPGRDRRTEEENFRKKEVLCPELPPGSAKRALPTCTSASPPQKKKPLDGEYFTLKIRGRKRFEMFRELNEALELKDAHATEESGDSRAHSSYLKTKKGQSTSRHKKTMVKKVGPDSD
Procedure: Cells were harvested and lysed with radioimmunoprecipitation assay (RIPA) buffer (Tris-HCl pH 7.5 50 mM, NaCl 150 mM, NP-40 (Igepal) 0.3%) containing protease inhibitor cocktail (Complete, Roche) and 100 μg/ml PMSF. Antibodies were used at 5 μg per […] protein and incubated overnight, rotating at 4° C. The next day, agarose beads conjugated to protein A/G (Santa Cruz Biotechnology) were added for 4 h with rotation at 4° C. Samples were centrifuged at 4° C. for 5 min and washed five times with RIPA buffer. Proteins were eluted from beads by 10 min of boiling in sample buffer and separated on 12% SDS-PAGE gel, followed by Western blot analysis.

HCT116 WT cells = experiment: Western blot analysis of HCT116 WT cells; format: cell-based
Procedure: (§3) Cells were lysed in whole-cell extract buffer [25 mM HEPES, pH 7.7, […], 1.5 mM MgCl2, 0.2 mM EDTA, 0.1% Triton X-100, 100 μg/ml phenylmethylsulfonyl fluoride (PMSF) and protease inhibitor cocktail (Roche, 1:100 dilution)] and placed on ice for 30 min (vortexing once after 15 min). After 30 minutes, the samples were centrifuged at 13,000×g for 10 minutes at 4° C. The supernatants containing total protein were measured for protein concentration using Bio-Rad Protein Assay Dye Reagent Concentrate Kit. 40 to […] was separated by sodium dodecyl sulfate-polyacrylamide gel electrophoresis (SDS-PAGE) (12% or 7.5%), followed by transfer to a nitrocellulose membrane. The membranes were blocked with 5% (w/v) non-fat dried skimmed milk powder in PBS supplemented with 0.05% Tween-20 (PBS-T) for 1 h at RT. Next, primary antibodies were added at 4° C. overnight or for 2 h at room temperature. Membranes were then incubated with secondary antibody for 1 h at RT and washed three times for 15 min each with PBS-T. Western Bright ECL (Advansta) was added to the membrane for 30-60 s and analyzed using Image Quant LAS-4000 (GE Healthcare Life Sciences) and Image Quant LAS-4000 software (GE Healthcare Life Sciences).

MEF cells = experiment: Western blot analysis of MEF cells (WT and XIAP KO); format: cell-based, mouse; details: 20 μM B3 for 2, 4, 6, 16 hours
Procedure: as §3

[3] = biological target: T3, p53 ubiquitylation by XIAP (Homo sapiens, UniProt P98170); experiment: In vitro ubiquitylation assay, recombinant GST-XIAP and p53; format: biochemical; details: 20 and 40 μM B3, 1 hour at 37C
T3 construct: host or cells: bacteria (GST-XIAP)
T3 sequence (P98170 whole entry): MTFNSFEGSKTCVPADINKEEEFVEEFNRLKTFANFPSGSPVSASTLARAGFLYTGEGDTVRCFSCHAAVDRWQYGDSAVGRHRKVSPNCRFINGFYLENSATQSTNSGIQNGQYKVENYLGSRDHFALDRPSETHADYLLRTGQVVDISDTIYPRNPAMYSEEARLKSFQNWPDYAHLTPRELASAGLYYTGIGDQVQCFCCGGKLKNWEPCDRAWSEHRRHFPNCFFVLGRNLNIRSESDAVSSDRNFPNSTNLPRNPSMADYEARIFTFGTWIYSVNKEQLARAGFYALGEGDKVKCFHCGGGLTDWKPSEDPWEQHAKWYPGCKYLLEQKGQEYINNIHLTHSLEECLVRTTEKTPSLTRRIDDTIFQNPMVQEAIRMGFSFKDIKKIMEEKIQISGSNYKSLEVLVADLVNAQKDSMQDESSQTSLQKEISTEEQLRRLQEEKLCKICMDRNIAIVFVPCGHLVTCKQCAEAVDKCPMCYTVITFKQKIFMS
Procedure: Bacterially expressed His-ARTS was purified using fast protein liquid chromatography (FPLC), and bacterially expressed GST-XIAP was purified using glutathione beads. P53 recombinant protein was purchased from R&D (cat #SP-450). Recombinant p53 and GST-XIAP were incubated. E1, UbcH5b, ubiquitin (Ub), and the appropriate E3 in conjugation buffer (20 mM Tris-Cl [pH 7.6], 100 mM KCl, 5 mM MgCl2, and 1 mM DTT) containing 2 mM ATP at 37C for 1 hour.

[4] = biological target: T4, binding between XIAP and p53 (Homo sapiens, UniProt P98170); experiment: BiFC assay in WT MEFs (VN-p53 and VC-XIAP); format: cell-based; details: 20 μM B3 for 18 hours
T4 construct: expressed in transfected cells; host or cells: WT MEFs
T4 sequence (P98170 whole entry): as above
Excerpt: The split-Venus BiFC system was used to evaluate close proximity indicating possible direct binding between pairs of proteins. The proteins were fused either to the N-terminal part of the VenusYFP (yellow fluorescence protein) (VN) or the C-terminal domain (VC). All Venus fragments were fused to the C-terminal sequences of these proteins. The Jun and bFos pair was used as a positive control (p.c.), and the Jun and bFosdeltaZTP pair was used as a negative control (n.c.). A vector encoding dsRed was used as a transfection efficiency marker.

[5] = tested on: SKMEL-5, A-375, UACC257, Hela wt, Mefs; experiment: Western blot, B3 apoptotic effect on different cell lines; format: cell-based; details: 20 μM, 24 h
Procedure: as §2

T1 sequence (P98170 241-356 limits assumed): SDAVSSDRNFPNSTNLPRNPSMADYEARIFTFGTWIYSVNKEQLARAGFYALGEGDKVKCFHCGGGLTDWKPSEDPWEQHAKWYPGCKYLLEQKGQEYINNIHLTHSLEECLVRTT

## Cn1ccnc1C(=O)c1ccc(NC(=O)C(=O)N[C@H](CO)Cc2ccccc2)cc1 [B3, (S)-N1-(1-hydroxy-3-phenylpropan-2-yl)-N2-(4-(1-methyl-1H-imidazole-2-carbonyl)phenyl)oxalamide]
XIAP-BIR3
  Kd: 36 µM
[1]
  induction of apoptosis: sufficient to induce apoptosis
[2]
  binding between ARTS and p53: reduces
HCT116 WT cells; 20 uM, 24 hrs
  XIAP levels: decrease
  cleavage of early apoptotic marker Caspase 9: increase
HCT116 WT cells; 10, 20, 30 μM B3, 24 hours
  MDM2 levels: reduction
  XIAP levels: reduction
  cPARP or caspase3: elevation
  p53 levels: elevation
MEF cells
  MDM2 levels: reduction
  XIAP levels: reduction
  cPARP or caspase3: elevation
  p53 levels: elevation
[3]
  p53 Ubiquitylation by XIAP: dose-dependent inhibition
[4]
  binding between VN-p53 and VC-XIAP: disrupted
[5]
  cleavage of apoptotic markers Caspase3 and PARP: induced cleavage

— patent publication US20250057813A1, “APOPTOSIS RELATED PROTEIN IN THE TGF-BETA SIGNALING PATHWAY (ARTS) MIMETIC COMPOUNDS, COMPOSITIONS, METHODS AND USES THEREOF IN INDUCTION OF APOPTOSIS” (Carmel-Haifa University Economic Corporation Ltd., priority 2022, published 2025)
